Reference: patent US20240299299A1, “COMPOSITIONS AND METHODS FOR INCREASING THE EFFICACY OF IMMUNOTHERAPIES AND VACCINES” (The Regents of the University of Michigan, priority 2021, published 2024)

Tests used:
[1] = test system: CT26 colon carcinoma cells; experiment: CT26 tumor model, orally administered metabolites plus α-PD-1; format: in vivo, BALB/c mice; conditions: oral gavage 3 times every 4 days (DHB 2.4 mg, 3-methylhistidine 3 mg per mouse) plus α-PD-1 i.p.
Protocol: FIG. 6: a) Therapeutic treatment regimen. BALB/c mice were s.c. inoculated with 1.5×10^5 CT26 colon carcinoma cells. The candidate agents were orally administrated 3 times every 4 days, 100 μg α-PD-1 was injected i.p. on days 10, 14, 18 and 22. b) Average tumor growth, c) individual tumor growth. Data represent the mean±s.e.m. (n=4-5).
Animals were cared for following the federal, state and local guidelines. All work conducted on animals was in accordance with and approved by the Institutional Animal Care and Use Committee (IACUC). Female (6-8 weeks old) BALB/c mice from Jackson Laboratory were inoculated with 1.5×10^5 CT26 cells per mouse on the right flank by s.c. injection. Tumor-bearing mice were randomly assigned to different treatment groups. For intratumoral injection study, the mice were injected with 3-methylhistidine (dose: 1 mg per mouse), sodium hippurate (dose: 1 mg per mouse), disodium sebacate (dose: 1 mg per mouse), sodium ferulate (dose: 1 mg per mouse), or DHB (dose: 0.5 mg per mouse) in 40 μL PBS buffer for every other day. The mice were i.p. injected with α-PD-1 antibody (100 μg per dose; clone RMP1-14, Bioxcell) on days 9, 12, 16 and 20 post tumor inoculation. […] The tumor size was measured, and the tumor volume was calculated as ½×(length×width^2). […]

[2] = test system: OT-I CD8+ T cells; experiment: Tcf1+CD8+ differentiation of OT-I T cells with metabolites; format: cell-based, mice; conditions: day 6
Protocol: FIG. 3: a) OT-I CD8+ T cells were cultured with different metabolites in vitro as indicated, b,c) shown are the frequency of the Tcf1^+CD8+ T cells and the representative flow cytometry plots on day 6. Data represent the mean±s.e.m. (n=5).
(§1) Splenocytes from OT-I mice were obtained aseptically. The cells were cultured in 96-well plates (1×10^5 cells per well). For Tcm differentiation study, cells were activated with SIINFEKL peptide (4×10^−9M) in the presence of various metabolites (arginine: 3 mM; 3-methylhistidine: 3 mM; N-acetylneuraminate: 100 μM; disodium sebacate: 100 μM; DHB: 100 μM; pantothenate: 100 μM; γ-aminobutyric acid: 100 μM; glycerol: 100 μM; AICAR: 100 μM, sodium ferulate: 100 μM) for 3 days. Then cells were washed three times with T-cell medium and further cultured with IL-2 (10 ng ml^−1; PeproTech) in the presence of metabolites for 5 days. The cells were then washed twice and re-activated with SIINFEKL peptide (10 μM) for 2 h. The suspension cells were collected, blocked with CD16/32 antibody and stained with the fixable viability dye eFluor 450, FITC-CD44 rat anti-human/mouse and PE-CD62L monoclonal antibody. To test if the central memory CD8+ T cells differentiation is dependent on dendritic cells, CD8 T cells isolated from the spleen in OT-I mice were incubated in the 96-well plate, which was precoated with anti-hamster IgG antibody. […] (1 μg mL^−1) and IL-2 (100 U mL^−1) were added into each well in the presence of 3-methylhistidine (3 mM), DHB (100 μM), or sodium ferulate (100 μM) for 2 days. Then cells were washed for three times to remove α-CD3/α-CD28 antibodies and further incubated with metabolites and IL-2 (10 ng ml^−1) for 5 days. Thereafter, cells were collected for central memory CD8^+ T cells analysis. For CD8^+ T cells survival study, cells were activated with antigen peptide as above, following with thoroughly washing, and incubation in presence of IL-2 for 2 days. […] Tcf1^+CD8^+, CD44^+CD62L^+CD8^+ and survival (stained with Annexin V-APC and PI) T cells were detected via flow cytometry.

[3] = test system: CT26 colon carcinoma cells; experiment: CT26 tumor model, metabolite monotherapy i.p. without α-PD-1; format: in vivo, BALB/c mice; conditions: monotherapy without α-PD-1 IgG; i.p. DHB 2.4 mg or 3-methylhistidine 3 mg per dose
Protocol: FIG. 7: a-d) In vitro cell viability of DHB at various concentrations in activated T cells, MC38, B16F10, and CT26 tumor cells. e) BALB/c mice were s.c. inoculated with 1.5×10^5 CT26 colon carcinoma cells. DHB (2.4 mg per dose) or 3-methylhistidine (3 mg per dose) was i.p. injected 3 times every 4 days, 100 μg α-PD-1 was i.p. injected on days 11, 15, and 20. Shown is the average tumor growth. Data represent the mean±s.e.m. (n=4-5).

[4] = test system: OT-I CD8+ T cells; experiment: CD8+ T cell survival upon IL-2 withdrawal (Annexin V/PI); format: cell-based, mice; conditions: dependent on the dose of metabolites
Protocol: FIG. 4: a) OT-I CD8+ T cells were cultured with different metabolites in vitro as indicated, b,c) shown are the level of survival CD8+ T cells (Annexin V^−PI^−) as well as the representative flow cytometry plots on day 5.5. Data represent the mean±s.e.m. (n=5).
as §1

[5] = test system: CT26 colon carcinoma cells; experiment: CT26 tumor model, intratumoral metabolites plus α-PD-1; format: in vivo, BALB/c mice
Protocol: FIG. 5: a) Therapeutic treatment regimen. BALB/c mice were s.c. inoculated with 1.5×10^5 CT26 colon carcinoma cells. The candidate metabolites were injected intratumorally every other day, 100 μg α-PD-1 was i.p. injected on days 9, 12, 16 and 20. b) Average tumor growth, c) individual tumor growth, and d) overall Kaplan-Meier survival are shown. Data represent the mean±s.e.m. (n=5).
Animals were cared for following the federal, state and local guidelines. All work conducted on animals was in accordance with and approved by the Institutional Animal Care and Use Committee (IACUC). Female (6-8 weeks old) BALB/c mice from Jackson Laboratory were inoculated with 1.5×10^5 CT26 cells per mouse on the right flank by s.c. injection. Tumor-bearing mice were randomly assigned to different treatment groups. For intratumoral injection study, the mice were injected with 3-methylhistidine (dose: 1 mg per mouse), sodium hippurate (dose: 1 mg per mouse), disodium sebacate (dose: 1 mg per mouse), sodium ferulate (dose: 1 mg per mouse), or DHB (dose: 0.5 mg per mouse) in 40 μL PBS buffer for every other day. The mice were i.p. injected with α-PD-1 antibody (100 μg per dose; clone RMP1-14, Bioxcell) on days 9, 12, 16 and 20 post tumor inoculation. For oral administration study, the mice were injected with 3-methylhistidine (dose: 3 mg per mouse), sodium hippurate (dose: 3 mg per mouse), disodium sebacate (dose: 3 mg per mouse), sodium ferulate (dose: 3 mg per mouse), or DHB (dose: 2.4 mg per mouse) in PBS buffer for 3 times every 4 days. α-PD-1 was injected on days 10, 14, 18 and 22. The tumor size was measured, and the tumor volume was calculated as ½×(length×width^2). Tumor-bearing mice were euthanized when the tumor size reached 1.5 cm in any diameter or when the animals became moribund with severe weight loss (>20%) or tumor ulceration.

[6] = test system: OT-I CD8+ T cells; experiment: Tcm differentiation of isolated OT-I CD8+ T cells activated with α-CD3/α-CD28 in the absence of dendritic cells; format: cell-based, mice; conditions: α-CD3/α-CD28 activation; 3-methylhistidine 3 mM, DHB 100 μM; day 7
Protocol: (§2) FIG. 2: a) OT-I CD8+ T cells were cultured with different metabolites in vitro as indicated, b,c) shown is the frequency of CD44^+CD62L^+ Tcm CD8+ T cells on day 8. d) OT-I CD8+ T cells were activated with α-CD3/α-CD28 antibodies in presence of metabolites as indicated and shown is the Tcm CD8+ T cells on day 7. Data represent the mean±s.e.m. (n=5).
Splenocytes from OT-I mice were obtained aseptically. The cells were cultured in 96-well plates (1×10^5 cells per well). For Tcm differentiation study, cells were activated with SIINFEKL peptide (4×10^−9M) in the presence of various metabolites (arginine: 3 mM; 3-methylhistidine: 3 mM; N-acetylneuraminate: 100 μM; disodium sebacate: 100 μM; DHB: 100 μM; pantothenate: 100 μM; γ-aminobutyric acid: 100 μM; glycerol: 100 μM; AICAR: 100 μM, sodium ferulate: 100 μM) for 3 days. Then cells were washed three times with T-cell medium and further cultured with IL-2 (10 ng ml^−1; PeproTech) in the presence of metabolites for 5 days. The cells were then washed twice and re-activated with SIINFEKL peptide (10 μM) for 2 h. The suspension cells were collected, blocked with CD16/32 antibody and stained with the fixable viability dye eFluor 450, FITC-CD44 rat anti-human/mouse and PE-CD62L monoclonal antibody. […] Tcf1^+CD8^+, CD44^+CD62L^+CD8^+ and survival (stained with Annexin V-APC and PI) T cells were detected via flow cytometry.

[7] = test system: OT-I CD8+ T cells; experiment: In vitro central memory (Tcm) differentiation of OT-I CD8+ T cells activated with SIINFEKL peptide and IL-2 with metabolites; format: cell-based, mice; conditions: day 8; metabolite-supplemented medium (arginine 3 mM, 3-methylhistidine 3 mM, DHB 100 μM, sodium ferulate 100 μM)
Protocol: as §2
Splenocytes from OT-I mice were obtained aseptically. The cells were cultured in 96-well plates (1×10^5 cells per well). For Tcm differentiation study, cells were activated with SIINFEKL peptide (4×10^−9M) in the presence of various metabolites (arginine: 3 mM; 3-methylhistidine: 3 mM; N-acetylneuraminate: 100 μM; disodium sebacate: 100 μM; DHB: 100 μM; pantothenate: 100 μM; γ-aminobutyric acid: 100 μM; glycerol: 100 μM; AICAR: 100 μM, sodium ferulate: 100 μM) for 3 days. Then cells were washed three times with T-cell medium and further cultured with IL-2 (10 ng ml^−1; PeproTech) in the presence of metabolites for 5 days. The cells were then washed twice and re-activated with SIINFEKL peptide (10 μM) for 2 h. The suspension cells were collected, blocked with CD16/32 antibody and stained with the fixable viability dye eFluor 450, FITC-CD44 rat anti-human/mouse and PE-CD62L monoclonal antibody. To test if the central memory CD8+ T cells differentiation is dependent on dendritic cells, CD8 T cells isolated from the spleen in OT-I mice were incubated in the 96-well plate, which was precoated with anti-hamster IgG antibody. […] (1 μg mL^−1) and IL-2 (100 U mL^−1) were added into each well in the presence of 3-methylhistidine (3 mM), DHB (100 μM), or sodium ferulate (100 μM) for 2 days. Then cells were washed for three times to remove α-CD3/α-CD28 antibodies and further incubated with metabolites and IL-2 (10 ng ml^−1) for 5 days. Thereafter, cells were collected for central memory CD8^+ T cells analysis. For CD8^+ T cells survival study, cells were activated with antigen peptide as above, following with thoroughly washing, and incubation in presence of IL-2 for 2 days. Metabolites were added during this incubation (arginine: 3 mM, 1 mM; 3-methylhistidine: 3 mM, 1 mM, 500 μM, 100 μM; N-acetylneuraminate: 100 μM; disodium sebacate: 100 μM; DHB: 100 μM, 50 μM, 20 μM; pantothenate: 100 μM; γ-aminobutyric acid: 100 μM; glycerol: 100 μM; AICAR: 100 μM). Then cells were further incubated in absence of both IL-2 and metabolites for 36 h to induce the apoptosis/dead. For Tcf1^+CD8^+ differentiation study, cells were activated with antigen peptide as above, followed by thoroughly washing, and incubation with metabolites in presence of IL-2 for 3 days. […] Tcf1^+CD8^+, CD44^+CD62L^+CD8^+ and survival (stained with Annexin V-APC and PI) T cells were detected via flow cytometry.

[8] = test system: cancer cells; conditions: reported in literature (Eroglu et al.); cited from earlier work

## Cn1cncc1C[C@H](N)C(=O)O [3-methylhistidine]
[1]
  efficacy of α-PD-1 treatment: improved the efficacy of α-PD-1 treatment
[2]
  frequency of Tcf1+CD8+ T cells: increased the frequency
[3]
  tumor growth in vivo: did not inhibit the tumor growth
[4]
  survival of activated CD8+ T cells: significantly increased the survival
[5]; intratumoral every other day (DHB 0.5 mg, 3-methylhistidine 1 mg per mouse) plus α-PD-1 i.p.
  systemic antitumor efficacy of α-PD-1 treatment and CT26 tumor growth: improved the systemic antitumor efficacy of α-PD-1 treatment and slowed down the CT26 tumors growth
[5]; intratumoral metabolite plus α-PD-1 i.p.
  tumor-free mice on day 70: 80%
[6]
  induction of central memory CD8+ T cells in the absence of dendritic cells: can also induce central memory CD8^+ T cells
[7]
  differentiation of CD44+CD62L+ central memory CD8+ T cells: significantly increased the differentiation

## COc1cc(/C=C/C(=O)O)ccc1O [Ferulic acid]
[8]
  apoptosis in cancer cells: can induce apoptosis
